# Source: ChEMBL document CHEMBL6127051, “Hydrazinecarboxamides: Comprehensive review of their anticancer, anticonvulsive, anti-inflammatory, enzyme inhibition, antioxidant and other activities” (Eur J Med Chem, 2024)
# Columns and labels:
# PC-3 = assay: Antiproliferative activity against human PC-3 cells assessed as inhibition of cell growth at 10 uM relative to control; assay type: functional; design: scale not given: the % may be the effect or the level left; conditions: pooled result: one value given for 4 cell lines, strains, targets or settings
# UO-31 = assay: Antiproliferative activity against human UO-31 cells assessed as inhibition of cell growth at 10 uM relative to control; assay type: functional; design: scale not given: the % may be the effect or the level left
# Cholinesterase = Cholinesterase (Equus caballus, UniProt P81908); assay: Inhibition of equine serum BChE using butyrylthiocholine iodide as substrate measured after 15 mins by Ellman's method
# Chain of Cholinesterase (P81908 whole entry): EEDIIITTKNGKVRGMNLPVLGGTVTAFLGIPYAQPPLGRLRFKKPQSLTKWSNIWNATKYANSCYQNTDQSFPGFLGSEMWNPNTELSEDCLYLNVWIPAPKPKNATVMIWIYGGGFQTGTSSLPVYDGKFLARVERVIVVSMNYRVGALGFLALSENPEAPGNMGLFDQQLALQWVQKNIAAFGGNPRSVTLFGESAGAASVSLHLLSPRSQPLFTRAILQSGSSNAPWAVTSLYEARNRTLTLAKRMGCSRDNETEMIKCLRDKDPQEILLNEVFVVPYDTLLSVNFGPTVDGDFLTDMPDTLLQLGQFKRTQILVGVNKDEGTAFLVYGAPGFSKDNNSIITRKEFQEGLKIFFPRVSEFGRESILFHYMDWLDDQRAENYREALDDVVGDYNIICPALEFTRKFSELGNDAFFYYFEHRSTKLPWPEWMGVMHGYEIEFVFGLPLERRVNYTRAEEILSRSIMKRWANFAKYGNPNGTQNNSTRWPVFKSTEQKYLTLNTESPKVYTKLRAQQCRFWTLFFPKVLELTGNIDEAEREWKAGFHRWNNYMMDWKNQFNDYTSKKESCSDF
# Acetylcholinesterase = Acetylcholinesterase (Electrophorus electricus, UniProt O42275); assay: Inhibition of electric eel AChE using acetylthiocholine iodide as substrate incubated for 15 mins by Ellman's method
# Chain of Acetylcholinesterase (O42275 whole entry): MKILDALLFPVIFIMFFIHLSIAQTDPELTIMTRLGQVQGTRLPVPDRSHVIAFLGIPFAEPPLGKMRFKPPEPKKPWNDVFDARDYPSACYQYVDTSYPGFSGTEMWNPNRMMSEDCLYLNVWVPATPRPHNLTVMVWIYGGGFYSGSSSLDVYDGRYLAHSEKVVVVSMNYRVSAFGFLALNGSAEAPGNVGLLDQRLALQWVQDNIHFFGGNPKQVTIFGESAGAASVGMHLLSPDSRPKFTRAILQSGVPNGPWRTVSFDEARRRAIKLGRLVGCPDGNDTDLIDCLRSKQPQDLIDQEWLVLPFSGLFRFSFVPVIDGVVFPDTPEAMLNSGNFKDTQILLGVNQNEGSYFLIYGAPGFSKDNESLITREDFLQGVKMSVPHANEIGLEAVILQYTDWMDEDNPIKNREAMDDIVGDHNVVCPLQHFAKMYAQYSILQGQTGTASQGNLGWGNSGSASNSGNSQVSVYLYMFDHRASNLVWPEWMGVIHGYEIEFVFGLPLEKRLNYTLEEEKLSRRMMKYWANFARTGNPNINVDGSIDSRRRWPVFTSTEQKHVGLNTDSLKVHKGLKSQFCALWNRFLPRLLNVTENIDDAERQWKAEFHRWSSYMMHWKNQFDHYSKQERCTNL
# MCF7 [1] = assay: Antiproliferative activity against human MCF7 cells assessed as reduction in cell viability measured after 48 hrs by MTT assay; assay type: functional, cell-based; conditions: MCF7, 48 h
# DNA topoisomerase 1 = DNA topoisomerase 1 (Homo sapiens, UniProt P11387); assay: Inhibition of DNA topoisomerase I (unknown origin)
# Chain of DNA topoisomerase 1 (P11387 whole entry): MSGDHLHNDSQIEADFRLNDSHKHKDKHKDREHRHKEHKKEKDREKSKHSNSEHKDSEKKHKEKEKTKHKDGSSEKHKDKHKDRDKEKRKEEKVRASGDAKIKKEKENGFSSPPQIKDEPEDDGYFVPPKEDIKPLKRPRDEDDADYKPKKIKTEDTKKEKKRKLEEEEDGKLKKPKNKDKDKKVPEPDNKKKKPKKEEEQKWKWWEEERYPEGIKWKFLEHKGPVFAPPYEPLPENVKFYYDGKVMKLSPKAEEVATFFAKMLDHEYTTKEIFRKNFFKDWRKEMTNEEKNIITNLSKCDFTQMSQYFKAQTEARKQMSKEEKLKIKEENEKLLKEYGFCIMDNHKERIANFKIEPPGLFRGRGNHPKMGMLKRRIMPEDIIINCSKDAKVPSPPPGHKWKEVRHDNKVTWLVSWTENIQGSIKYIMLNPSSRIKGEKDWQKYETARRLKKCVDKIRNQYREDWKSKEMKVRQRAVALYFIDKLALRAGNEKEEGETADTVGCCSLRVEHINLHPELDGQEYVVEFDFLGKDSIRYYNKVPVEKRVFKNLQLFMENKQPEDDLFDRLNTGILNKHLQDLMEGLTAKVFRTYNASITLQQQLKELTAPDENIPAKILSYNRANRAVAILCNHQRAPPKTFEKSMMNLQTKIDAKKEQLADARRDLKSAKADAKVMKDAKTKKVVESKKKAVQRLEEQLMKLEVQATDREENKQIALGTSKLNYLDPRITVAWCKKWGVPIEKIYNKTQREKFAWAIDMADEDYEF
# MKN-45 = assay: Antiproliferative activity against human MKN-45 cells assessed as inhibition of cell growth by MTT assay; assay type: functional, cell-based
# P388 = assay: Cytotoxicity against mouse P388 cells assessed as reduction in cell viability; assay type: functional, cell-based
# 769-P = assay: Antiproliferative activity against human 769-P cells assessed as reduction in cell growth incubated for 48 hrs by MTT assay; assay type: functional, cell-based
# NCI-H1563 = assay: Antiproliferative activity against human NCI-H1563 cells assessed as reduction in cell growth incubated for 24 hrs by MTT assay; assay type: functional, cell-based; conditions: NCI-H1563, 24 h
# HEK293 = assay: Antiproliferative activity against HEK293 cells assessed as inhibition of cell growth incubated for 48 hrs by CCK8 assay; assay type: functional, cell-based; conditions: Homo sapiens, HEK293, 48 h
# HepG2 [2] = assay: Antiproliferative activity against human HepG2 cells assessed as reduction in cell growth incubated for 48 hrs by MTT assay; assay type: functional, cell-based; conditions: HepG2, 48 h
# HepG2 [3] = assay: Antiproliferative activity against human HepG2 cells assessed as reduction in cell growth incubated for 24 hrs by MTT assay; assay type: functional, cell-based; conditions: HepG2, 24 h
# Mus musculus [4] = assay: Anticonvulsant activity in ip dosed MES induced mouse model measured after 2 hrs; assay type: functional
# AR-42J cell line = assay: Antiproliferative activity against AR42J cells assessed as reduction in cell viability incubated for 24 hrs by MTT colorimetric assay; assay type: functional, cell-based; conditions: Rattus norvegicus
# [5] = Inhibition of alpha amylase (unknown origin); design: species or system Homo sapiens
# MCF7 [6] = assay: Antiproliferative activity against human MCF7 cells assessed as reduction in cell growth incubated for 48 hrs by MTT assay; assay type: functional, cell-based; conditions: MCF7, 48 h
# HepG2 [7] = assay: Antiproliferative activity against human HepG2 cells assessed as inhibition of cell growth incubated for 48 hrs by MTT assay; assay type: functional, cell-based; conditions: HepG2, 48 h
# [8] = Inhibition of Lipoxygenase (unknown origin); design: species or system Homo sapiens
# [9] = biological target: Polyunsaturated fatty acid 5-lipoxygenase (Homo sapiens, UniProt P09917); assay: Inhibition of 5-LOX (unknown origin)
# Chain of Polyunsaturated fatty acid 5-lipoxygenase (P09917 whole entry): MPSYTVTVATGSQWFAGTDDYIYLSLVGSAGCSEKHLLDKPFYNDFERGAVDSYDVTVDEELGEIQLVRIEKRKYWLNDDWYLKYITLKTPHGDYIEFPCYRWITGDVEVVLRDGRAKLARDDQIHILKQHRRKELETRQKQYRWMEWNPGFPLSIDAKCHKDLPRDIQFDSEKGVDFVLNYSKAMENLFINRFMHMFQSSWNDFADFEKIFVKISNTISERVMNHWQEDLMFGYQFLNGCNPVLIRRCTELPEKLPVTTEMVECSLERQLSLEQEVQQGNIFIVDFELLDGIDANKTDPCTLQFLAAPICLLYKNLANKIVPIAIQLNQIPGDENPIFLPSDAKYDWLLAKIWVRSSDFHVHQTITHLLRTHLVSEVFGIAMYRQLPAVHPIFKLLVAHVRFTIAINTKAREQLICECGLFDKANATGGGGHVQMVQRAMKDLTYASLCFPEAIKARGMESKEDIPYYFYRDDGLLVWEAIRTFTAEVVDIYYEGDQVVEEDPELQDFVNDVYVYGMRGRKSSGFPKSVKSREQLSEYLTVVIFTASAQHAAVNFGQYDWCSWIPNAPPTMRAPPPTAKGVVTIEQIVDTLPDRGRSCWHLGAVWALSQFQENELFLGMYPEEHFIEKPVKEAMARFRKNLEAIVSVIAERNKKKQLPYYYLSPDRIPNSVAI
# [10] = Tmax in rat at 2 mg/kg, po by LC-MS/MS analysis; assay type: ADME, organism-based; conditions: in vivo
# [11] = Half life in rat at 2 mg/kg, po by LC-MS/MS analysis; assay type: ADME, organism-based; conditions: in vivo
# Mus musculus [12] = assay: Anticonvulsant activity in po dosed scPTZ induced Albino mouse seizure model measured after 4 hrs; assay type: functional
# Mus musculus [13] = assay: Anticonvulsant activity in ip dosed MES induced mouse model measured after 4 hrs; assay type: functional
# [14] = Antiplatelet activity in human platelets assessed as inhibition of collagen-induced platelet aggregation at 10 uM relative to control; assay type: functional; design: scale not given: the % may be the effect or the level left
# [15] = Antiplatelet activity in human platelets assessed as inhibition of collagen-induced platelet aggregation at 20 uM relative to control; assay type: functional; design: scale not given: the % may be the effect or the level left
# Alpha glucosidase = Alpha glucosidase (Homo sapiens, UniProt O43451+P10253+P14410+Q2M2H8); assay: Inhibition of Alpha glucosidase (unknown origin); assay type: protein assay
smiles,measurement,setting,value
CC(=O)Nc1nc(C)c(C(=O)NNC(=O)Nc2ccccc2)s1,Activity,PC-3,14.8%
same,Activity,UO-31,14.8%
CCCCCCCCCCCCCNC(=O)NNC(=O)c1ccc(C(F)(F)F)cc1,IC50,Cholinesterase,58 µM
same,IC50,Acetylcholinesterase,27 µM
COc1cc(/C=C2\SC(=S)N(n3c(=O)[nH]c4ccccc4c3=O)C2=O)ccc1OC(=O)c1ccccc1,IC50,MCF7 [1],0.012 µM
O=C(Nc1ccccc1)NN1C(=O)c2c(c3c4cccc(O)c4n([C@H]4O[C@H](CO)[C@@H](O)[C@H](O)[C@H]4O)c3c3[nH]c4c(O)cccc4c23)C1=O,IC50,DNA topoisomerase 1,0.25 µM
same,IC50,MKN-45,0.035 µM
same,IC50,P388,0.035 µM
CCNC(=O)NNC(=O)c1ccc([N+](=O)[O-])cc1,IC50,769-P,4780 µM
same,IC50,NCI-H1563,336 µM
same,IC50,HEK293,1500 µM
same,IC50,HepG2 [2],1930 µM
same,IC50,HepG2 [3],7.06 µM
Cc1ccc(NC(=O)NN)cc1,Activity,Mus musculus [4],100%
O=C(CNc1nc2ccccc2n1C(=O)Nc1ccccc1)NNC(=O)Nc1ccccc1,IC50,AR-42J cell line,304 µM
same,IC50,[5],64.8 µM
O=C(NNC(=O)C(=O)Nc1ccccc1)Nc1ccccc1,IC50,MCF7 [6],10.3 µM
same,IC50,HepG2 [7],7.73 µM
CC(C(=O)O)c1cccc(Oc2ccccc2)c1 (stereo not drawn) [FENOPROFEN],IC50,[8],60 µM
O=C1NCCN(c2ccccc2)N1,IC50,[9],5 µM
same,Tmax,[10],1 h
same,half-life,[11],3.3 h
O=C(CSc1nc2ccccc2n2cnnc12)NNC(=O)NC1CCCCC1,ED50,Mus musculus [12],30 mg/kg
NNC(=O)Nc1ccccc1Cl,Activity,Mus musculus [13],66.6%
O=C(NNc1ccnc2ccccc12)Nc1ccccc1,Activity,[14],11.7%
same,Activity,[15],10.6%
Cc1ccc(C[C@@H]2C[C@H]3C(=O)N(C)C4(C[C@H](C)CC[C@H]4C(C)C)N3O2)c(OCC(=O)NNC(=O)Nc2cccc3ccccc23)c1 (stereo partly drawn),IC50,Alpha glucosidase,94.33 µM
same,IC50,[5],53 µM
